In paper PMC5053573, “Structure-Based Design of Tetrahydroisoquinoline-7-carboxamides as Selective Discoidin Domain Receptor 1 (DDR1) Inhibitors” (Journal of Medicinal Chemistry, 2016):

Legend:
Test in all cases: biochemical
Details in all cases: read-out: %Ctrl @ 1000nM
PAK1 = PAK1 (Homo sapiens, UniProt Q13153)
ERK1 = target: T1, ERK1 (Homo sapiens, UniProt P27361)
T1 construct: gene MAPK3

DDR2 = DDR2 (Homo sapiens, UniProt Q16832)
[1] = target: ABL1(F317L)-phosphorylated (Homo sapiens, UniProt P00519, F317L)
PIK3CA(H1047Y) = PIK3CA(H1047Y) (Homo sapiens, UniProt P42336, H1047Y)
DCAMKL2 = target: T2, DCAMKL2 (Homo sapiens, UniProt Q8N568)
T2 construct: gene DCLK2

NEK3 = NEK3 (Homo sapiens, UniProt P51956)
CSNK1G3 = CSNK1G3 (Homo sapiens, UniProt Q9Y6M4)
Chain of CSNK1G3 (Q9Y6M4 whole entry): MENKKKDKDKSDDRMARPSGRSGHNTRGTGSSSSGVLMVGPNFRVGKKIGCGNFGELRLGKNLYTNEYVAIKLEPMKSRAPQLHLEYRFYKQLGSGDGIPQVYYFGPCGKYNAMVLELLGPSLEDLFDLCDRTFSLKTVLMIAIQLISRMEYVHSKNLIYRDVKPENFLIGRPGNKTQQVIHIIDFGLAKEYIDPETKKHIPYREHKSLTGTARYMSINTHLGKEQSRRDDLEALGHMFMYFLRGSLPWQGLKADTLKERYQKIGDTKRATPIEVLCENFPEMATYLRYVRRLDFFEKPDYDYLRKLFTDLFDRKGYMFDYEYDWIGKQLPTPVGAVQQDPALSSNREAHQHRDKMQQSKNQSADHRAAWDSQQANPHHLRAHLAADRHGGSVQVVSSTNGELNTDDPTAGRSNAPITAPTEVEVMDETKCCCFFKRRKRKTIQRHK

GRK4 = GRK4 (Homo sapiens, UniProt P32298)
MLK3 = target: T3, MLK3 (Homo sapiens, UniProt Q16584)
T3 construct: gene MAP3K11

TNK1 = TNK1 (Homo sapiens, UniProt Q13470)
NEK7 = NEK7 (Homo sapiens, UniProt Q8TDX7)
KIT(D816H) = KIT(D816H) (Homo sapiens, UniProt P10721, D816H)
TEC = TEC (Homo sapiens, UniProt P42680)
IRAK3 = IRAK3 (Homo sapiens, UniProt Q9Y616)
Chain of IRAK3 (Q9Y616 whole entry): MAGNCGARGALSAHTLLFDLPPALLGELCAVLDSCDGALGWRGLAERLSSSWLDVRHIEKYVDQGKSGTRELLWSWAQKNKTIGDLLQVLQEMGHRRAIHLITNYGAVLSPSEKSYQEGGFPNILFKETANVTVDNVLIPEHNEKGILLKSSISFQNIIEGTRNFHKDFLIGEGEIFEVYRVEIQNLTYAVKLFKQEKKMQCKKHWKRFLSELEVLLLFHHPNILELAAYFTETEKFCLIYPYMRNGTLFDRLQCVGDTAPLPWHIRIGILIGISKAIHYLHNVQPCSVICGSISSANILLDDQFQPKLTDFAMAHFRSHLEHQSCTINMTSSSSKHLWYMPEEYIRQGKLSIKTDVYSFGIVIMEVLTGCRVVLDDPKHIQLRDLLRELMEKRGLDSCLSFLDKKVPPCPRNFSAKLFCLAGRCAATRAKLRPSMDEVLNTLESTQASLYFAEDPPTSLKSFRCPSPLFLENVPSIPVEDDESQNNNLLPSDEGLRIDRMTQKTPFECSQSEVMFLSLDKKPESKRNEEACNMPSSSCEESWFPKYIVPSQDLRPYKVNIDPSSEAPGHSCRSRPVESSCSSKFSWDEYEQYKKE

HIPK2 = HIPK2 (Homo sapiens, UniProt Q9H2X6)
[2] = target: EGFR(L747-E749del, A750P) (Homo sapiens, UniProt P00533, A750P/DEL747-749)
AKT3 = AKT3 (Homo sapiens, UniProt Q9Y243)
KIT(A829P) = KIT(A829P) (Homo sapiens, UniProt P10721, A829P)
PIK3CA(I800L) = PIK3CA(I800L) (Homo sapiens, UniProt P42336, I800L)
PRKD1 = PRKD1 (Homo sapiens, UniProt Q15139)
Chain of PRKD1 (Q15139 whole entry): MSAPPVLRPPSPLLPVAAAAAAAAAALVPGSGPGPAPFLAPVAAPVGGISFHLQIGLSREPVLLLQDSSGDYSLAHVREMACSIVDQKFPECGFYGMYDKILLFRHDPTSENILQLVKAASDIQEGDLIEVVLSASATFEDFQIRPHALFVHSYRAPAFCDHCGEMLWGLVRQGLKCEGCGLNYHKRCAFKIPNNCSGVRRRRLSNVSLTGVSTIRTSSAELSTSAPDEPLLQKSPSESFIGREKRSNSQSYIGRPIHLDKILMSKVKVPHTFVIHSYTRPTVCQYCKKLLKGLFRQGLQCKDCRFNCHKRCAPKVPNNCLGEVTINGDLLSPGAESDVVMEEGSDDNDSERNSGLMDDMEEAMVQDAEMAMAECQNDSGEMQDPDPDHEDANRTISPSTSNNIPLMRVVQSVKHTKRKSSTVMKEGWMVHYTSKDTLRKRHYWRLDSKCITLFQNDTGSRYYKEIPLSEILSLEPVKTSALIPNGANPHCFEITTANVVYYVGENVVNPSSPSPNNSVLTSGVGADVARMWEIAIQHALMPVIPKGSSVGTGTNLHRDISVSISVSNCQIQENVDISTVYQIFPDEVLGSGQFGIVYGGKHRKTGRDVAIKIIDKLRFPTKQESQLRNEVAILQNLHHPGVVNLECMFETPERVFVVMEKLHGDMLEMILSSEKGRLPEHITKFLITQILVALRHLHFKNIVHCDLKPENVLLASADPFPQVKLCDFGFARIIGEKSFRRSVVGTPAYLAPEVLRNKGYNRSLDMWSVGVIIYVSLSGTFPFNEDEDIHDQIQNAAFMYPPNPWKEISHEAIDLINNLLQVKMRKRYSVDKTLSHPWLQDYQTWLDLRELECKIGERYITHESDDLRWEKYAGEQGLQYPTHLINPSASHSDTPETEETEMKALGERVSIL

MAP3K4 = MAP3K4 (Homo sapiens, UniProt Q9Y6R4)
AKT1 = AKT1 (Homo sapiens, UniProt P31749)
ARK5 = target: T4, ARK5 (Homo sapiens, UniProt O60285)
T4 construct: gene NUAK1

FLT3(ITD,D835V) = FLT3(ITD,D835V) (Homo sapiens, UniProt P36888, D835V/ITD)
CDK4 = CDK4 (Homo sapiens, UniProt P11802)
PRKD3 = PRKD3 (Homo sapiens, UniProt O94806)
SRPK2 = SRPK2 (Homo sapiens, UniProt P78362)
NEK4 = NEK4 (Homo sapiens, UniProt P51957)
Chain of NEK4 (P51957 whole entry): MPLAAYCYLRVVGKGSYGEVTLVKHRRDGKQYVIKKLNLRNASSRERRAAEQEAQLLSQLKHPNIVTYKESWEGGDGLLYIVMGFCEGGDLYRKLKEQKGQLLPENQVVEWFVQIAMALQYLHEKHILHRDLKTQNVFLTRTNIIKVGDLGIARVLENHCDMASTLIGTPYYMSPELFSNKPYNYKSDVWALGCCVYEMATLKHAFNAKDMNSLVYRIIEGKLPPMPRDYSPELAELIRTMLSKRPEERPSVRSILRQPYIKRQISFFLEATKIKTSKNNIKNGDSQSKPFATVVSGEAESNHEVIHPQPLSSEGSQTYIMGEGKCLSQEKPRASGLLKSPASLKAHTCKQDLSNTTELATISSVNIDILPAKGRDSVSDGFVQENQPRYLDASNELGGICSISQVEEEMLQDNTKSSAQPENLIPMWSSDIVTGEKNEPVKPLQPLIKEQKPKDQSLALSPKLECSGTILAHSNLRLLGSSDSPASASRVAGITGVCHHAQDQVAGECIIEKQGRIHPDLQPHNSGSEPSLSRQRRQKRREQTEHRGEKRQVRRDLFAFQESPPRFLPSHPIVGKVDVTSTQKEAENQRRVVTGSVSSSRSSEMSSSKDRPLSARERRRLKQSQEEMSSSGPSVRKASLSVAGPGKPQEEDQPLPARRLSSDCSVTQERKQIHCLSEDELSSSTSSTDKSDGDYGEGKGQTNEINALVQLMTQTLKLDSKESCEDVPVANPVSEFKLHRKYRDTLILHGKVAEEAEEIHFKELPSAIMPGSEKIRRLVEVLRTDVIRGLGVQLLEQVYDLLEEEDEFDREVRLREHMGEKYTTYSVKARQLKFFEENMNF

TAOK3 = TAOK3 (Homo sapiens, UniProt Q9H2K8)
Chain of TAOK3 (Q9H2K8 whole entry): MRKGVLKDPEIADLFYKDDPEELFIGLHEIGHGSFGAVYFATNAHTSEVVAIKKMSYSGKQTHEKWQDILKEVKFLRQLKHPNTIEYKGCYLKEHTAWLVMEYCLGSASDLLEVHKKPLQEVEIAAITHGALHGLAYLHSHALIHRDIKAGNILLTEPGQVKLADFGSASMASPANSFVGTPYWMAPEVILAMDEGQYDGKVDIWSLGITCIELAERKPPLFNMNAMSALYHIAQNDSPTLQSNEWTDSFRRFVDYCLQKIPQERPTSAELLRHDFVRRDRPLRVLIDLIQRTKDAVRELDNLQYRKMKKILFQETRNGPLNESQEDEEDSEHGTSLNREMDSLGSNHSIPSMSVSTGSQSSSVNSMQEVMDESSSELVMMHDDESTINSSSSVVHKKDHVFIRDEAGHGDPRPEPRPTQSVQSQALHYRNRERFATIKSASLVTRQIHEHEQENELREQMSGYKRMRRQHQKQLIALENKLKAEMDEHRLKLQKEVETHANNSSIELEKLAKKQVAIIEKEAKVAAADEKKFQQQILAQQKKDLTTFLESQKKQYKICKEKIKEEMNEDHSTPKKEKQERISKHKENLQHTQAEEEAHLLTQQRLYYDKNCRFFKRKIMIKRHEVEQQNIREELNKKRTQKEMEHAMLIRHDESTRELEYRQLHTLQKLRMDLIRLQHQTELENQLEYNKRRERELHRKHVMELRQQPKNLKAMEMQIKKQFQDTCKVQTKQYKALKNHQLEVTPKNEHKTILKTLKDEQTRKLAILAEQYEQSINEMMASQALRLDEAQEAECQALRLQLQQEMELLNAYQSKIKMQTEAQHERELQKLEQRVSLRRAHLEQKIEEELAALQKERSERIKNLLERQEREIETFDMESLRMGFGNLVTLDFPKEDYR

ERK4 = target: T5, ERK4 (Homo sapiens, UniProt P31152)
T5 construct: gene MAPK4
T5 sequence (P31152 whole entry): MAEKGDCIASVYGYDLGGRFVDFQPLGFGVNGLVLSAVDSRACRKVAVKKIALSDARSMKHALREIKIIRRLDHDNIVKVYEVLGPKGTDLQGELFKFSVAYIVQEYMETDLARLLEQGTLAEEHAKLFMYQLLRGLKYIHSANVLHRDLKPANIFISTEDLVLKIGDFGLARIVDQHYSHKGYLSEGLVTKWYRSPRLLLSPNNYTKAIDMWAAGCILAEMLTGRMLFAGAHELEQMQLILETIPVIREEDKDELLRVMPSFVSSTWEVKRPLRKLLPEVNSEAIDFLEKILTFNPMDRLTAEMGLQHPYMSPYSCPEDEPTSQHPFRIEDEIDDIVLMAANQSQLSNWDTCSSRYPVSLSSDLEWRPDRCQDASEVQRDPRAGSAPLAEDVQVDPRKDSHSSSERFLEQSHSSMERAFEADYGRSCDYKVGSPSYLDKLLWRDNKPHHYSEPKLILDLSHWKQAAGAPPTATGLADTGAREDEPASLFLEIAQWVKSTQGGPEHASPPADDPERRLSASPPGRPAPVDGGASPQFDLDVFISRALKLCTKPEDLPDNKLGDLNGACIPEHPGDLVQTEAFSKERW

FGFR2 = FGFR2 (Homo sapiens, UniProt P21802)
MAP4K3 = MAP4K3 (Homo sapiens, UniProt Q8IVH8)
MAK = MAK (Homo sapiens, UniProt P20794)
Chain of MAK (P20794 whole entry): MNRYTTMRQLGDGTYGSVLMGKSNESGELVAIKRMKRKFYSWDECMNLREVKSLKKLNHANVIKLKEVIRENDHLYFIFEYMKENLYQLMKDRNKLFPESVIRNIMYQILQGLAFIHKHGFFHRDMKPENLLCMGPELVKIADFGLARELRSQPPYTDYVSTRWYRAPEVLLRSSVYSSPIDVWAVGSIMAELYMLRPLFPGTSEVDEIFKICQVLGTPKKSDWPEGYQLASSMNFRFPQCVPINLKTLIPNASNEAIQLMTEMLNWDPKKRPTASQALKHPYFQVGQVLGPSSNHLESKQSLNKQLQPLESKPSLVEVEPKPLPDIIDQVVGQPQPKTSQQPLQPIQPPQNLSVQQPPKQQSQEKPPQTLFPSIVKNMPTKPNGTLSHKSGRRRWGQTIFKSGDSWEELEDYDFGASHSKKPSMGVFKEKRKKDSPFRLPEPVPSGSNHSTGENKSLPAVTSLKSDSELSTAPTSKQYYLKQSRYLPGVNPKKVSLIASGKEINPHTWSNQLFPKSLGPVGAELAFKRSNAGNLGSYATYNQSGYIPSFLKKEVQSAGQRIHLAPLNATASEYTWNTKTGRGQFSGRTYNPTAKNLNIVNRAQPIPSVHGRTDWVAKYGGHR

PRP4 = target: T6, PRP4 (Homo sapiens, UniProt Q13523)
T6 construct: gene PRPF4B

**Q.** With Cc1cn(-c2cc(NC(=O)c3ccc4c(c3)CN(c3cncnc3)C[C@@H]4C)cc(C(F)(F)F)c2)cn1 [Compound 6j] as the compound, how does the remaining activity at 1 µM (PAK1) read?
**A.** 84%

**Q.** What about the remaining activity at 1 µM (ERK1) of the same compound?
**A.** 95%

**Q.** And the remaining activity at 1 µM (DDR2)?
**A.** 0.35%

**Q.** What about the remaining activity at 1 µM [1] of the same compound?
**A.** 74%

**Q.** And the remaining activity at 1 µM (PIK3CA(H1047Y))?
**A.** 45%

**Q.** What about the remaining activity at 1 µM (DCAMKL2) of the same compound?
**A.** 100%

**Q.** And the remaining activity at 1 µM (NEK3)?
**A.** 94%

**Q.** What about the remaining activity at 1 µM (CSNK1G3) of the same compound?
**A.** 72%

**Q.** What about the remaining activity at 1 µM (GRK4) of the same compound?
**A.** 100%

**Q.** And the remaining activity at 1 µM (MLK3)?
**A.** 81%

**Q.** What about the remaining activity at 1 µM (TNK1) of the same compound?
**A.** 79%

**Q.** What about the remaining activity at 1 µM (NEK7) of the same compound?
**A.** 87%

**Q.** And the remaining activity at 1 µM (KIT(D816H))?
**A.** 100%

**Q.** And the remaining activity at 1 µM (TEC)?
**A.** 96%

**Q.** And the remaining activity at 1 µM (IRAK3)?
**A.** 86%

**Q.** And the remaining activity at 1 µM (HIPK2)?
**A.** 100%

**Q.** And the remaining activity at 1 µM [2]?
**A.** 92%

**Q.** What about the remaining activity at 1 µM (AKT3) of the same compound?
**A.** 96%

**Q.** What about the remaining activity at 1 µM (KIT(A829P)) of the same compound?
**A.** 100%

**Q.** What about the remaining activity at 1 µM (PIK3CA(I800L)) of the same compound?
**A.** 100%

**Q.** What about the remaining activity at 1 µM (PRKD1) of the same compound?
**A.** 95%

**Q.** What about the remaining activity at 1 µM (MAP3K4) of the same compound?
**A.** 56%

**Q.** And the remaining activity at 1 µM (AKT1)?
**A.** 96%

**Q.** And the remaining activity at 1 µM (ARK5)?
**A.** 82%

**Q.** And the remaining activity at 1 µM (FLT3(ITD,D835V))?
**A.** 23%

**Q.** And the remaining activity at 1 µM (CDK4)?
**A.** 98%

**Q.** What about the remaining activity at 1 µM (PRKD3) of the same compound?
**A.** 100%

**Q.** And the remaining activity at 1 µM (SRPK2)?
**A.** 100%

**Q.** And the remaining activity at 1 µM (NEK4)?
**A.** 98%

**Q.** What about the remaining activity at 1 µM (TAOK3) of the same compound?
**A.** 100%

**Q.** And the remaining activity at 1 µM (ERK4)?
**A.** 93%

**Q.** And the remaining activity at 1 µM (FGFR2)?
**A.** 74%

**Q.** And the remaining activity at 1 µM (MAP4K3)?
**A.** 96%

**Q.** And the remaining activity at 1 µM (MAK)?
**A.** 95%

**Q.** What about the remaining activity at 1 µM (PRP4) of the same compound?
**A.** 100%
